Measurements taken from article PMC11487561 (ACS Chemical Neuroscience, 2024).
Where two headings read alike, the source gives them in different places.

Key:
[1] = molecular target: T1, human M4 (hM4) (Homo sapiens, UniProt P08173); assay: Calcium mobilization assay, hM4/Gqi5-CHO cells, EC20 acetylcholine (PAM); type: cell-based; conditions: for fold increase in hM4 potency (EC50) vs comparator analogue: 14h vs 14c, 22g vs 14j, 22j vs 14k, 22k vs 14g, 22f vs 14e; for Emax: read-out: hM4 %ACh Max
T1 construct: expressed in transfected cells
T1 sequence (P08173 1-479): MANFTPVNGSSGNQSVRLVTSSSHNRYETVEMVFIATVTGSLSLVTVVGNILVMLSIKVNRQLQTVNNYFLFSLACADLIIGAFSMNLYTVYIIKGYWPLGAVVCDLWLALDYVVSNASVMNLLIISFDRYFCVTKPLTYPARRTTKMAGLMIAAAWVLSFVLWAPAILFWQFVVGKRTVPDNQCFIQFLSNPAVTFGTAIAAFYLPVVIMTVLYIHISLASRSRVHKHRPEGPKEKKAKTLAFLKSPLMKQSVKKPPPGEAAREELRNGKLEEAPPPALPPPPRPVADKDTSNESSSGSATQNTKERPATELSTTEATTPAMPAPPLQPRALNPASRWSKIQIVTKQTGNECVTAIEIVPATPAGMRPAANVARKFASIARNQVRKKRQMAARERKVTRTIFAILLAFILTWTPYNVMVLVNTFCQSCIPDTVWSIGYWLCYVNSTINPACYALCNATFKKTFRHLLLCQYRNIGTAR

[2] = molecular target: rat M4 (rM4) (Rattus norvegicus, UniProt P08485); assay: Calcium mobilization assay, rat M4; type: cell-based
Chain of rat M4 (rM4) (P08485 whole entry): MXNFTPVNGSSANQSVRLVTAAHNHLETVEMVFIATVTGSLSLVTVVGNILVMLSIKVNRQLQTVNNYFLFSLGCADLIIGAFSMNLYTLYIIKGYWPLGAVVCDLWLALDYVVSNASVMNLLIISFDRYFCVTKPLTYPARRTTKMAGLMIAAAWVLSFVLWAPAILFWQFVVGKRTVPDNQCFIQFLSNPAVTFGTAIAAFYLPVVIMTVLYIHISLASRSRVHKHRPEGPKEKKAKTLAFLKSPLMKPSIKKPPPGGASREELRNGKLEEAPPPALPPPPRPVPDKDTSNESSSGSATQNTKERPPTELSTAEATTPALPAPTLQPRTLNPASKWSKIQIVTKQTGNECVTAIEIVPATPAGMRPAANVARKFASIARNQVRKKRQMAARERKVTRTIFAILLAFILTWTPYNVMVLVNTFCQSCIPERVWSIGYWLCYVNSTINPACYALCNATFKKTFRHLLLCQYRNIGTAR

[3] = Intrinsic clearance in rat liver microsomes; type: in vitro ADME; conditions: for CLint scaled at 1 µM: pH 7.4, rat liver microsomes
Protocol: (§1) Intrinsic Clearance in Rat and Human Liver Microsomes
(§2) The in vitro intrinsic clearance (CL int) was investigated in commercially obtained hepatic microsomes from rat and human donors using the substrate depletion (i.e., loss-of-parent vs. time, or t 1/2 method) approach with analyte detection via liquid chromatography-tandem mass spectrometry (LC-MS/MS). For each species, mean %parent remaining values at each time point were calculated from replicates raw data (analyte:IS peak area ratios) and used to determine in vitro t 1/2 and CLint.
(§3) Experiments were carried out using a robot-assisted (TECAN model Evo 200). Compound was incubated (1 µM final concentration) in buffer (100 mM potassium phosphate pH 7.4 with 3 mM MgCl2) containing hepatic microsomes (0.5 mg/mL final concentration) from multiple species, discretely, at 37 °C under constant orbital shaking. After 5 minutes (pre-incubation), reactions were initiated by addition of nicotinamide adenine dinucleotide phosphate (NADPH, 1 mM final concentration). At selected time intervals (0, 3, 7, 15, 25, and 45 minutes) post-addition of NADPH, aliquots (50 µL) were taken and placed into a 96-shallow-well plate containing ice cold acetonitrile (150 µL) with carbamazepine (IS, 50 nM). The plates were then centrifuged (3000 rcf at 4 °C) for 10 minutes. The supernatants were transferred to a new 96-shallow-well daughter plate and diluted (1:1 v/v) with water (Milli-Q filtered). The plates were then sealed in preparation for LC-MS/MS analysis (see below).
(§4) Raw LC-MS/MS peak area data generated from the assay samples were used to construct natural log-transformed %parent remaining vs. time plots (using t = 0 minute post-NADPH addition sample data as starting point set to 100%). In vitro compound half-life (t 1/2) values were obtained using the following […]
(§5) k is the slope from linear regression analysis of the natural log-transformed data (using means from Where all replicates at each time point). Resulting t 1/2 values were then used to calculate hepatic CLint values according to the following equation and with the use of species-specific scale-up factors for liver weight (grams) per total body weight (kg): […]
(§6) CLint = in vitro t1/2 x 0.5 mg microsomes x 1 gram liver x kg body wt aScale-up factors used are 45 (rat) and 20 (human).2
(§7) Predicted hepatic clearance (CLhep) was calculated using the following equation: […]
(§8) Qh represents hepatic blood flow (mL/min/kg): 21 for human, 70 for rat, and 90 for mouse.
(§9) Prepared samples were injected (10 µL each) onto an AB Sciex Triple Quad 4500 mass spectrometer system with an Agilent 1260 Infinity II pump and autosampler. Mass spectrometer conditions are described in Table S1. Quantitation of compounds was performed via AB Sciex Multiquant software using the raw analyte:IS peak area ratios. The typical detection range was 0.5 ng/mL to ≥ 5,000 ng/mL utilizing a quadratic equation regression with 1/x2 weighting. […]
(§10) Table S1. LC-MS/MS Conditions*
(§11) Mobile phase A 0.5% Formic Acid in Water
(§12) Mobile phase B 0.5% Formic Acid in Acetonitrile
(§13) Gradient Time % Mobile Phase B

[4] = Intrinsic clearance in human liver microsomes; type: in vitro ADME; conditions: for CLint scaled at 1 µM: pH 7.4, human liver microsomes
Protocol: as §1, §2, §3, §4, §5, §6, §7, §8, §9, §10, §11, §12, §13

[5] = Binding in plasma from rat (equilibrium dialysis); type: in vitro ADME; conditions: read-out: rat fu,plasma
Protocol: (§14) Binding in plasma from rat and human.
(§15) Determination of compounds’ fraction unbound (f u) in plasma from rat and human was conducted in vitro via equilibrium dialysis using HTDialysis membrane plates. Dialysis membranes (four paired strips per HTD assay) were hydrated as described by the manufacturer and inserted into the HTD plate, which was assembled and prepared for sample addition by the dispensing of blank buffer (DPBS, 100 µL/well) into the ‘top half’ of each membrane-split well. Each compound was diluted into plasma from each species (5 µM final concentration), which was aliquoted in triplicate to the ‘bottom half’ of the prepared HTD plate wells. The HTD plate was sealed and incubated for 6 hours at 37 °C. Following incubation, each well (both top and bottom halves) were transferred (20 µL) to the corresponding wells of a 96-shallow-well (V-bottom) plate. The daughter plates were then matrix-matched (buffer side wells received equal volume of plasma, and plasma side wells received equal volume of buffer), and extraction solution (120 µL; acetonitrile containing 50 nM carbamazepine as IS) was added to all wells of both daughter plates to precipitate protein and extract test article. The plates were then sealed and centrifuged (3500 rcf) for 10 minutes at ambient temperature. Supernatant (60 µL) from each well of the daughter plates was then transferred to the corresponding wells of new daughter plates (96-shallow-well, V bottom) containing water (Milli-Q, 60 µL/well), and the plates were sealed in preparation for LC-MS/MS analysis (see below). fu was calculated as (analyte to IS MS peak area ratio from Trans-buffer side) / (analyte to IS MS peak area ratio from Cis-plasma side). Mean values for each species were calculated from 3 replicates.

[6] = Binding in plasma from human (equilibrium dialysis); type: in vitro ADME; conditions: human, plasma, read-out: human fu,plasma
Protocol: as §14, §15

[7] = Binding in brain homogenate from rat (equilibrium dialysis); type: in vitro ADME; conditions: for rat fbrain: fraction unbound, equilibrium dialysis, rat brain homogenates; for fraction unbound at 6 h, 1 µM: rat, brain homogenate, in %, read-out: fu,brain (rat brain homogenate)
Protocol: Binding in brain homogenate from rat.
Determination of fraction unbound (f u) in brain homogenate from rat was conducted using the same methodology and procedure than described for plasma protein binding assay with the following modifications: 1) a final compound concentration of 1 μM was used, 2) naïve rat brains were homogenized in DPBS (1:3 composition of brain: DPBS, w/w) using a Mini-Bead Beater™ machine in order to obtain […]
The diluted fraction unbound (f u2) in brain was calculated as (analyte to IS MS peak area ratio from Trans-buffer side) / (analyte to IS MS peak area ratio from Cis-brain homogenate side). Undiluted fraction unbound for the brain was calculated using the following equation: […]
Mean values for each species were calculated from 3 replicates. […]

[8] = Rat plasma-to-brain level (PBL) cassette, brain distribution; type: in vivo; conditions: SD rat, 0.2 mg/kg IV; for Kp,uu, brain:plasma / Kp uu at 0.25 h: unbound brain to unbound plasma ratio; for Kp at 0.25 h / Kp uu at 0.25 h: male, Sprague-Dawley, rat, brain / plasma, iv
[9] = tested on: amphetamine-induced hyperlocomotion in rats; assay: Rat amphetamine-induced hyperlocomotion (AHL); type: in vivo; conditions: 10 mg/kg p.o. + amphetamine 0.75 mg/kg s.c.
Protocol: Rat Amphetamine-Induced Hyperlocomotion (AHL) Protocol
Male Harlan Sprague Dawley rats with a mean body weight of 240 g (range 221-264 g) were tested in SmartFrame Open Field locomotor activity test chambers to automatically record locomotor activity. All rats were habituated in locomotor activity enclosures for 30 min, followed by pretreatment by oral gavage for an additional 30 min with either vehicle or a dose of VU6016235 or the comparator M 4 PAM VU0467154. Next, rats were injected subcutaneously with vehicle or a dose of 0.75 mg/kg amphetamine and then monitored for an additional 60 min. Changes in locomotor activity were recorded for a total of 120 min. Locomotor data were expressed as the number of photobeam breaks/5 min intervals across the 120-min test session or as the total ambulation, calculated as sum of photobeam beam breaks from the time of amphetamine administration (60 min) until the end of the study (120 min). Time course data were analyzed by two-way ANOVA with main effects of treatment and time; changes in total ambulation were analyzed by one-way ANOVA followed by Dunnett’s post hoc test (GraphPad Prism 7 [GraphPad Software, San Diego, CA]). For all tests, α ≤ 0.05 was considered to represent statistical significance.
Finally, percent reversal data were calculated in Microsoft Excel using the following formula: Percent Reversal = 100 - {[(total ambulation in individual animal from t = 60 to t = 120) / (mean total ambulation […]
from t=60 to t=120 in the VAMP group)] * 100}. Mean percent reversal ± S.E.M. was calculated for each dose group using GraphPad Prism 7.
At the end of this behavioral study, each rat was euthanized, then decapitated, and the plasma and brain tissues were collected for the evaluation of exposure levels of VU6016235-05 or VU0467154-9A by pharmacokinetic analysis. […]

[10] = parameters: method as in PMID 31787491, PMID 34710625; conditions: previously reported tricycles, Figure 2; cited from earlier work
[11] = parameters: method as in PMID 31787491, PMID 34710625; conditions: previously reported tricycles, Figure 2; cited from earlier work; remark: listed apart in the source
[12] = calcium mobilization, hM4/Gqi5-CHO cells, EC20 acetylcholine
[13] = calcium mobilization, hM4/Gqi5-CHO cells, EC20 acetylcholine, read-out: hM4 EC50
[14] = calcium mobilization, hM4/Gqi5-CHO cells, EC20 acetylcholine, read-out: hM4 pEC50 (converted)
[15] = predicted hepatic clearance from microsomal CLint
[16] = fraction unbound, equilibrium dialysis
[17] = 0.2 mg/kg, total brain to total plasma ratio

fold increase in hM4 potency (EC50) vs comparator analogue [1] [fold] | Emax [1, 12] [%] | EC50 [1, 13] [nM] | EC50 [1, 14] [nM] | CLint scaled at 1 µM [3] [mL/min/kg] | CLint scaled at 1 µM [4] [mL/min/kg] | fraction unbound at 6 h, 5 µM [5, 16] | fraction unbound at 6 h, 5 µM [6, 16] | rat fbrain [7] | fraction unbound at 6 h, 1 µM [7] | Kp at 0.25 h [8, 17] | Kp uu at 0.25 h ([8]; 0.2 mg/kg) | Structure (SMILES) | further results
16 | 50 | 100 | 102 | 121 | 45 | 0.132 | 0.035 | 0.033 | 0.012 to 0.033 | > 5 | > 1 | Cc1nc(C)c2c(n1)sc1c(N3CC4(C3)CC(F)(F)C4)ncnc12 [14h] | EC50 [2]: 380 nM; CLhep, rat [3, 15]: 44 mL/min/kg; CLhep, human [4, 15]: 14 mL/min/kg; fraction unbound at 6 h, 5 µM ([5]; in %): > 0.05; fraction unbound at 6 h, 5 µM ([6]; in %): 0.01 to 0.05; Kp, brain:plasma ([8]; 0.25 h, total brain to total plasma ratio, 0.2 mg/kg): 5.07; Kp,uu, brain:plasma ([8]; 0.25 h, 0.2 mg/kg): 1.27; Kp,uu, brain:plasma ([8]; 0.25 h, listed as VU6015976, 0.2 mg/kg): 0.76
19 | 97 | < 190 | 33.1 | 1520 | 148 | 0.043 | 0.01 | 0.015 | 0.012 to 0.033 | 8.33 | 2.91 | Cc1nc(C)c2c(n1)sc1c(N3CCC(F)(F)C3)nccc12 [22f] | 
7 | 94 | 170 | 166 | 386 | 50 | 0.014 | 0.009 | 0.009 | < 0.01 | 1.69 | 1.01 | COc1ccc(CNc2nccc3c2sc2nc(C)nc(C)c23)cc1F [22j] | 
4 | 77 | < 190 |  | 3060 | 124 | 0.038 | 0.023 | 0.007 | < 0.01 | 18.6 | 3.43 | Cc1nc(C)c2c(n1)sc1c(N3CCCC3)nccc12 [22k] | hM4 pEC50 [1, 12]: 7.14
 |  |  |  |  |  |  |  |  |  |  |  | Cc1nnc2sc(C(=O)NCc3ccc(S(=O)(=O)C(F)(F)F)cc3)c(N)c2c1C [VU0467154, reference compound] | mean reversal of AHL [9]: 35.4 ± 4.2%
 |  |  |  |  |  |  |  |  |  |  |  | Cc1cc(C)c2c(n1)sc1c(N3CC4(COC4)C3)ncnc12 [VU6007215] | rat CLhep [10]: 63 mL/min/kg; Kp [11]: 4.47; Kp,uu [11]: 0.40
 |  |  |  |  |  |  |  |  |  |  |  | COc1cc(N2CC(Nc3ncnc4c3ccc3nn(C)c(C)c34)C2)c(Cl)cn1 [VU6017649] | rat CLhep [10]: 44 mL/min/kg; Kp [11]: 1.55; Kp,uu [11]: 3.88
